# Laboratory results as given in ChEMBL document CHEMBL1201862, “PubChem BioAssay data set” (2004).
#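 Five concentrations, 48 hours, 96-well plates. GI50: concentration for 50% inhibition of growth.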 Active and inactive are the calls of the source. Cut-off read from the data, not from the text of the source: active = GI50 up to about 1.1 µM and inactive = higher.
# Tests used:
# Test in all cases: NCI-60 cell line screen, 48 h
# OVCAR-5 = test system: OVCAR-5
# 786-0 = test system: 786-0
# HCC 2998 = test system: HCC 2998
# NCI-H226 = test system: NCI-H226
# T47D = test system: T47D
# NCI-H460 = test system: NCI-H460
# OVCAR-8 = test system: OVCAR-8
# PC-3 = test system: PC-3
# SK-MEL-5 = test system: SK-MEL-5
# UO-31 = test system: UO-31
# HOP-62 = test system: HOP-62
# NCI-H522 = test system: NCI-H522
# U-251 = test system: U-251
# SF-268 = test system: SF-268
# CAKI-1 = test system: CAKI-1
# A549 = test system: A549
# SN12C = test system: SN12C
# ACHN = test system: ACHN
# MOLT-4 = test system: MOLT-4
# KM12 = test system: KM12
SMILES,GI50 (OVCAR-5),GI50 (786-0),GI50 (HCC 2998),GI50 (NCI-H226),GI50 (T47D),GI50 (NCI-H460),GI50 (OVCAR-8),GI50 (PC-3),GI50 (SK-MEL-5),GI50 (UO-31),GI50 (HOP-62),GI50 (NCI-H522),GI50 (U-251),GI50 (SF-268),GI50 (CAKI-1),GI50 (A549),GI50 (SN12C),GI50 (ACHN),GI50 (MOLT-4),GI50 (KM12)
CC(C)(C)COS(=O)OCC(C)(C)C,> 100 µM (inactive),> 100 µM (inactive),> 100 µM (inactive),> 100 µM (inactive),> 100 µM (inactive),> 100 µM (inactive),> 100 µM (inactive),> 100 µM (inactive),> 100 µM (inactive),> 100 µM (inactive),> 100 µM (inactive),> 100 µM (inactive),> 100 µM (inactive),> 100 µM (inactive),> 100 µM (inactive),> 100 µM (inactive),> 100 µM (inactive),> 100 µM (inactive),> 100 µM (inactive),> 100 µM (inactive)
O=C(NC(=O)c1c(F)cccc1F)Nc1cccc(Oc2ncc(Cl)cn2)c1,> 100 µM (inactive),40 µM (inactive),4.73 µM (inactive),62.7 µM (inactive),> 35.2 µM (inactive),4.51 µM (inactive),43 µM (inactive),> 100 µM (inactive),> 100 µM (inactive),> 100 µM (inactive),29.6 µM (inactive),20.3 µM (inactive),33.2 µM (inactive),36.5 µM (inactive),30 µM (inactive),> 39.9 µM (inactive),45.1 µM (inactive),99.3 µM (inactive),> 80.5 µM (inactive),1.4 µM (inactive)
Nc1ccc(Sc2c3ccccc3nc3ccccc23)cc1,21.8 µM (inactive),5.48 µM (inactive),24.4 µM (inactive),18.7 µM (inactive),2.06 µM (inactive),20.4 µM (inactive),13.8 µM (inactive),13.1 µM (inactive),16.6 µM (inactive),17.5 µM (inactive),29.7 µM (inactive),6.15 µM (inactive),15.2 µM (inactive),18.5 µM (inactive),18.5 µM (inactive),33.3 µM (inactive),18.5 µM (inactive),12.3 µM (inactive),3.02 µM (inactive),18.6 µM (inactive)
OC(c1ccsc1)c1cc2ccccc2s1 (stereo not given),> 10 µM (inactive),> 10 µM (inactive),> 10 µM (inactive),> 10 µM (inactive),> 10 µM (inactive),> 10 µM (inactive),> 10 µM (inactive),> 10 µM (inactive),> 10 µM (inactive),> 10 µM (inactive),> 10 µM (inactive),> 10 µM (inactive),> 10 µM (inactive),> 10 µM (inactive),> 10 µM (inactive),> 10 µM (inactive),> 10 µM (inactive),> 10 µM (inactive),> 10 µM (inactive),> 10 µM (inactive)
CCOC(=O)CCC(NC(=O)c1ccc(Oc2nc3ccc(C(F)(F)F)cc3nc2-c2ccccc2)cc1)C(=O)OCC (stereo not given),> 68.7 µM (inactive),4.25 µM (inactive),> 100 µM (inactive),4.32 µM (inactive),> 42.2 µM (inactive),47.1 µM (inactive),9.06 µM (inactive),> 58.3 µM (inactive),45.3 µM (inactive),20.6 µM (inactive),4.82 µM (inactive),9.57 µM (inactive),20.4 µM (inactive),6.55 µM (inactive),7.19 µM (inactive),24.2 µM (inactive),> 50.7 µM (inactive),5.61 µM (inactive),> 100 µM (inactive),11.2 µM (inactive)
CCOC(=O)c1cn(C)nc1N/C(C)=C\C(=O)c1ccccc1,> 100 µM (inactive),> 100 µM (inactive),> 100 µM (inactive),91.4 µM (inactive),> 100 µM (inactive),> 100 µM (inactive),> 100 µM (inactive),> 100 µM (inactive),> 100 µM (inactive),> 100 µM (inactive),33 µM (inactive),> 100 µM (inactive),> 100 µM (inactive),> 100 µM (inactive),> 100 µM (inactive),> 100 µM (inactive),> 100 µM (inactive),> 100 µM (inactive),> 100 µM (inactive),> 100 µM (inactive)
O=C(ON=c1c2ccccc2ccc2ccccc12)c1ccccc1,60.8 µM (inactive),23.6 µM (inactive),34 µM (inactive),22.3 µM (inactive),30.3 µM (inactive),43.2 µM (inactive),27.4 µM (inactive),40.1 µM (inactive),16.2 µM (inactive),25.5 µM (inactive),22 µM (inactive),20.7 µM (inactive),19.5 µM (inactive),35.6 µM (inactive),24.4 µM (inactive),29.7 µM (inactive),27.2 µM (inactive),34.9 µM (inactive),7.96 µM (inactive),11.8 µM (inactive)
CCCCCc1cc2cc3c(c(O)c2c(=O)[nH]1)C1(CC3)C(=O)c2c(O)c3c(c(O)c2C1=O)C(=O)C(OC)=CC3=O (stereo not given),2.98 µM (inactive),0.7 µM (active),1.05 µM (active),1.45 µM (inactive),0.239 µM (active),0.863 µM (active),0.622 µM (active),0.568 µM (active),0.64 µM (active),0.687 µM (active),3.61 µM (inactive),0.359 µM (active),0.601 µM (active),0.946 µM (active),0.259 µM (active),0.845 µM (active),0.877 µM (active),0.522 µM (active),0.56 µM (active),1.26 µM (inactive)
CN(C)c1ccc(/C=C(\NC(=O)c2ccccc2)C(=O)NC(CCC(=O)O)C(=O)O)cc1 (stereo not given),> 100 µM (inactive),> 100 µM (inactive),> 100 µM (inactive),> 100 µM (inactive),> 100 µM (inactive),> 100 µM (inactive),> 100 µM (inactive),> 100 µM (inactive),> 100 µM (inactive),> 100 µM (inactive),> 100 µM (inactive),> 100 µM (inactive),> 100 µM (inactive),> 100 µM (inactive),> 100 µM (inactive),> 100 µM (inactive),> 100 µM (inactive),> 100 µM (inactive),> 100 µM (inactive),> 100 µM (inactive)
COc1ccc2cc(-c3nc(N)nc(N4N=C(C)CC4(C)C)n3)c(=N)oc2c1,18.7 µM (inactive),17.9 µM (inactive),17.9 µM (inactive),15.3 µM (inactive),15.4 µM (inactive),17.4 µM (inactive),23 µM (inactive),16.8 µM (inactive),16.2 µM (inactive),21.5 µM (inactive),22.2 µM (inactive),13.5 µM (inactive),18.8 µM (inactive),16.9 µM (inactive),17.5 µM (inactive),24.9 µM (inactive),20.2 µM (inactive),16.3 µM (inactive),11.7 µM (inactive),15.9 µM (inactive)
C=CCOC(=O)CC[N+]1=CCC(c2ccccc2)(c2ccccc2)O1,> 100 µM (inactive),> 100 µM (inactive),> 100 µM (inactive),> 100 µM (inactive),> 100 µM (inactive),> 100 µM (inactive),> 100 µM (inactive),> 100 µM (inactive),> 100 µM (inactive),> 100 µM (inactive),> 100 µM (inactive),> 100 µM (inactive),> 100 µM (inactive),> 100 µM (inactive),> 100 µM (inactive),> 100 µM (inactive),> 100 µM (inactive),> 100 µM (inactive),> 100 µM (inactive),> 100 µM (inactive)
O=C1c2ccccc2C(=O)N1CCCCNOCCCN1C(=O)c2ccccc2C1=O,> 100 µM (inactive),> 100 µM (inactive),> 100 µM (inactive),> 100 µM (inactive),> 100 µM (inactive),> 100 µM (inactive),> 100 µM (inactive),> 100 µM (inactive),> 100 µM (inactive),> 100 µM (inactive),> 100 µM (inactive),> 100 µM (inactive),> 100 µM (inactive),> 100 µM (inactive),> 100 µM (inactive),> 100 µM (inactive),> 100 µM (inactive),> 100 µM (inactive),> 100 µM (inactive),> 100 µM (inactive)
NCCCCNC1(c2cc3ccccc3s2)CCCCC1,3.77 µM (inactive),1.55 µM (inactive),1.65 µM (inactive),16.5 µM (inactive),2.29 µM (inactive),2.62 µM (inactive),7.06 µM (inactive),4.9 µM (inactive),1.74 µM (inactive),2.56 µM (inactive),6.03 µM (inactive),2.42 µM (inactive),2.34 µM (inactive),6.24 µM (inactive),14.8 µM (inactive),5.96 µM (inactive),12.2 µM (inactive),11.1 µM (inactive),2.07 µM (inactive),3.2 µM (inactive)
N=C(N)N/N=C/c1c(-c2ccc(Cl)cc2)nc2sccn12,2.3 µM (inactive),1.61 µM (inactive),1.35 µM (inactive),2.21 µM (inactive),1.33 µM (inactive),1.76 µM (inactive),1.95 µM (inactive),1.62 µM (inactive),1.65 µM (inactive),2.48 µM (inactive),1.79 µM (inactive),1.56 µM (inactive),1.86 µM (inactive),1.8 µM (inactive),3.21 µM (inactive),1.64 µM (inactive),1.95 µM (inactive),1.5 µM (inactive),2 µM (inactive),1.96 µM (inactive)
